The test system of assay [1] is photodamaged skin. The assay can be described thus: Measurement of photodamage repair in the hairless mouse model. In kind it is in vivo, Hairless mice (female, HRS/J strain). Particulars: for Photodamage repair activity (scale 0 to 4): UVB-irradiated, topical in acetone three times per week, three doses. An excerpt:
The ability of a composition of the invention to induce repair of photodamaged skin may be determined by any conventional means. One conventional method of determining the ability of a topical composition to repair photodamaged skin is the hairless mouse model described by Kligman et al., supra. […] In this model, repair is defined by the appearance of a zone of normalized dermis extending from the epidermis down to the layer of compressed elastin. The extent of repair is reflected by the width of this zone. […] The average width of the repair zone is then calculated by dividing the area by the length of the histological section that was measured.
The width of the repair zone is […] an activity value of 4.
Measurement of Photodamage Repair
Hairless mice (female, HRS/J strain, Jackson Labs, 5-7 weeks old at the start of the experiments) were housed in yellow light and irradiated three times per week with a bank of 8 Westinghouse Sunlamps (FS120) placed about 20 cm above the animals. Daily doses were 0.03 J/cm^2 for two weeks, 0.06 J/cm2 for two weeks and 0.08 J/cm2 thereafter. The radiation dose is controlled by an International Light Model IL844A Phototherapy Exposure Control and a model SEE240 detector.
To effect repair of the dermal damage, the UVB irradiation was discontinued and the animals were divided into groups of approximately eight and treated three times per week with various concentrations of the retinoids dissolved in acetone. Stock solutions are made up freshly every week in subdued light at concentrations such that the dose is delivered in 100 μl volume and applied topically with a plastic pipette to an area of about 10 cm^2 on the back of the animal. All dosing was done under yellow light. A control group treated with acetone alone was included.
Two-cm strips of dorsal skin were taken longitudinally down the center of the irradiated (and treated) area. Elastin fibers were stained with Luna's aldehyde fuchsin and collagen by Van Gieson. In this model, repair is defined by the appearance of a normalized dermis extending from the epidermis down to the layer of compressed elastin. The extent of repair is reflected by the width of this zone. […] Twenty-four fields each of which, at 100X magnification, represents a section of tissue 0.57 mm long, are examined and the area calculated. The results are reported as the average area per field in mm^2. Thus the average width of the repair zone can be obtained by dividing this average area by 0.57 mm. […] All microscopic fields are included in the calculations of average area (or width). Data are analyzed by Student's t-test.
Compounds are tested at three doses and an approximate ED50 calculated.

The test system of assay [2] is human RAR-γ. Description: RAR-γ transactivation assay (SeAP reporter, COS cells). Format: cell-based. Particulars: for Transactivation % max (γ): relative to all-trans-retinoic acid at same concentration (1,000 nM or 10,000 nM). On the procedure: (§1) Retinoid Receptor Transactivation Assays
(§2) Transactivation assays were performed essentially as described in Apfel et al., supra. For the RAR transcription activation test system, the secreted alkaline phosphatase gene (SeAP) is used as reporter. To have a screening system specific for the transfected receptor, chimeric receptors are used. These contain an estrogen receptor DNA binding domain and therefore recognize the estrogen response element (ERE) which no endogenous RAR's in mammalian cells will recognize.
(§3) The transactivation assay system has been adapted to 96-well plates and most steps are done by a robot. Briefly, on day 1 confluent COS cells are subcultured at an equivalent density onto 96-well plates in DMEM+10% charcoal stripped serum. On day 2 DNA is prepared for transfection by mixing the following: 10 μg vit-TK-SeAP reporter plasmid, 2 μg RAR expression plasmid, 2 μg transfection control plasmid and 30 μl Transfectam (lipopolyamine transfection reagent). Cells are washed twice with serum-free medium and DNA/transfectam mix added. After 1 hour medium is removed and replaced with growth medium containing test retinoids. On day 4 or 5 the culture supernatant is removed, heated to 65° for 5 min to inactivate nonspecific phosphatases, and diluted 1:10 with water. 20 μl samples are added to 100 μl of phosphatase substrate in buffer. After 1 hour at 37° the luminescence is measured in a 96-well luminometer.
(§4) 100 μl of β-galactosidase substrate is added to the adherent cells. Plates are incubated for 1 hour at 37° and the supernatants transferred to separate plates for quantitation of β-galactosidase activity by luminescence measurement. Transactivation results are expressed as the ratio of SeAP/β-galactosidase activity for each well to correct for well-to-well variation in transfection efficiency.
(§5) Data are means of values obtained from two or more individual experiments, rounded off to two significant figures. […] The maximum transactivation activity is determined from the plot where increasing dosage provides little or no additional activity, i.e., where the plot begins to level off. For active retinoids the highest concentration tested is 1000 nM.

For assay [3], the system named is human RAR-α. Description: RAR-α transactivation assay (SeAP reporter, COS cells). Format: cell-based. Particulars: for Transactivation % max (α): relative to all-trans-retinoic acid at same concentration (1,000 nM or 10,000 nM). On the procedure: as §1, §2, §3, §4, §5
Assay [4] concerns RAR-β. The assay can be described thus: RAR-β transactivation assay (SeAP reporter, COS cells). The note with it: for Transactivation % max (β): relative to all-trans-retinoic acid at same concentration (1,000 nM or 10,000 nM). In kind it is cell-based, human. As for the experimental part:
as §1, §2, §3, §4, §5

In assay [5] the target is human RAR-γ. Description: Binding assay for human RAR-γ (displacement of 3H-retinoic acid). The note with it: 3H-retinoic acid displacement, mean of two or more experiments. On the procedure: (§6) Binding Assay for Human RAR-α, RAR-β and RAR-γ
(§7) Binding assays were performed essentially as described in Apfel et al., supra. […] Extracts containing the receptors were used in a competitive binding assay which depends upon the ability of increasing concentrations of a retinoid to displace ^3 H-retinoic acid. In a typical assay, 0.2 to 0.4 picomoles of receptors were incubated in 0.2 ml of 50 mM Tris HCl, pH 7.4, 50 mM NaCl, 2 mM EDTA (binding buffer) containing 0.5% gelatin, 1% DMSO, 2-5 nM ^3 H-retinoic acid and various concentrations of unlabelled retinoids. After 3-5 hours at 22° C., 0.15 ml of chilled charcoal/dextran suspension (5% Norit A/0.5% dextran T-40 in binding buffer) were added for 15 min at 4° C. The tubes were centrifuged at 12,000 x g for 15 minutes and the supernates counted. Binding parameters were calculated from competition curves using the Ligand program.
(§8) Data are means of values obtained from two or more individual experiments, rounded off to two significant figures. […] When binding inhibition at 10,000 nM is less than 50%, >10,000 is indicated.
Background: In a radioligand displacement assay an active substance lowers the binding of a labelled ligand.

The target in assay [6] is T1, human RAR-β (Homo sapiens, UniProt P10826).
T1 sequence (P10826 201-455 limits assumed): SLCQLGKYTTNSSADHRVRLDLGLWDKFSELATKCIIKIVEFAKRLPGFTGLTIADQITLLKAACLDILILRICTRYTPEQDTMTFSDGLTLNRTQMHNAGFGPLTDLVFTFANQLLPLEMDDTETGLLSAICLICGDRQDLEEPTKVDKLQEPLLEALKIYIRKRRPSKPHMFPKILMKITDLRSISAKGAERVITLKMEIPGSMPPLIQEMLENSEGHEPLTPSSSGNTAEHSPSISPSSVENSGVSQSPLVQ
The assay can be described thus: Binding assay for human RAR-β (displacement of 3H-retinoic acid). The note with it: 3H-retinoic acid displacement, mean of two or more experiments. As for the experimental part: as §6, §7, §8

For assay [7], the target named is T2, human RAR-α (Homo sapiens, UniProt P10276).
T2 sequence (P10276 201-462 limits assumed): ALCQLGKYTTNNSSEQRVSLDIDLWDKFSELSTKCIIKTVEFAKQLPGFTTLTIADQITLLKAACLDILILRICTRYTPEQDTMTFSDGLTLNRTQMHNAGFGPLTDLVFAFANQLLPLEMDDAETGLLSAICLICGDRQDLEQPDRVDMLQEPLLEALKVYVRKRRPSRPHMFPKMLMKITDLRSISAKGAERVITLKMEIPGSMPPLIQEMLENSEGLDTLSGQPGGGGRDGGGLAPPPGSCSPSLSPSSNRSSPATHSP
The assay can be described thus: Binding assay for human RAR-α (displacement of 3H-retinoic acid). Particulars: 3H-retinoic acid displacement, mean of two or more experiments.

Where [8] appears, read: RAR-γ, COS cells, 50% of the compound's own maximum, set to highest concentration tested (usually 1000 nM) if no maximum reached, read-out: Transactivation ED50 (γ).
Where [9] appears, read: COS cells, 50% of the compound's own maximum, set to highest concentration tested (usually 1000 nM) if no maximum reached, read-out: Transactivation ED50 (β).
Where [10] appears, read: COS cells, 50% of the compound's own maximum, set to highest concentration tested (usually 1000 nM) if no maximum reached, read-out: Transactivation ED50 (α).

Where two headings read alike, the source gives them in different places.

For `CC1=C(/C=C/C(C)=C\C=C\C(C)=C\C(=O)O)C(C)(C)CCC1` [C, 9-cis RA, reference compound], the “Photodamage repair activity (scale 0 to 4)” value (“Photodamage repair activity” below) in assay [1] is […]. For the same molecule, the EC50 in assay [2] amounted to […]; in assay [3] (read-out: Transactivation ED50 (α), COS cells, 50% of the compound's own maximum, set to highest concentration tested (usually 1000 nM) if no maximum reached), […]. Also, in assay [2] (RAR-γ), the “Transactivation % max (γ)” value is […]. The “Transactivation % max (α)” value in assay [3] is given as […].
As for `CC1=C(/C=C/C(C)=C/C=C/C(C)=C/C(=O)O)C(C)(C)CCC1` [Compound A, all-trans retinoic acid, reference compound], the “Photodamage repair activity” value in assay [1] is given as […]. In addition, in assay [1] (μg of test compound applied to 10 cm^2 of skin area, standard retinoid), the “ED50 for photodamage repair” value amounted to […]. For the same molecule, the EC50 in assay [2] stood at […]; in assay [4] (read-out: Transactivation ED50 (β), COS cells, 50% of the compound's own maximum, set to highest concentration tested (usually 1000 nM) if no maximum reached), […]. Moreover, the “Transactivation % max (γ)” value in assay [2] (RAR-γ) was […]. Also, the “Transactivation % max (β)” value in assay [4] came to […].
As to `CCCCCCCOc1cc2c(cc1/C(C)=C/c1ccc(C(=O)O)cc1)C(C)(C)CCS2(=O)=O` [Compound L, p-[(E)-2-[3',4'-dihydro-4',4'-dimethyl-7'-(heptyloxy)-2'H-1-benzothiopyran-6'-yl]propenyl]benzoic acid 1',1'-dioxide, reference compound], the IC50 was determined as 4.2 µM in assay [5], 4.7 µM in assay [6] and 0.07 µM in assay [7]. Moreover, the “Photodamage repair activity” value in assay [1] worked out at 0. Also, the EC50 in assay [2] (setting [8]), in assay [4] (setting [9]) and in assay [3] (setting [10]) was 1000 nM in each case. In addition, in assay [2] (RAR-γ), the “Transactivation % max (γ)” value is listed as 18%. The “Transactivation % max (β)” value in assay [4] was 14%. The “Transactivation % max (α)” value in assay [3] is 14%.
With `COc1cc(C)c(/C=C/C(C)=C/C=C/C(C)=C/C(=O)O)c(C)c1C` [D, acitretin, reference compound], the IC50 in assay [5] is […]. Further, the “Photodamage repair activity” value in assay [1] was determined as 0.
On to `CCOC(=O)/C=C(C)/C=C/C=C(C)/C=C/c1c(C)cc(OC)c(C)c1C` [E, etretinate, reference compound], for which the IC50 in assay [5], in assay [6] and in assay [7] was greater than 10 µM throughout. Further, the “Photodamage repair activity” value in assay [1] was determined as 0. Also, the EC50 in assay [2] (setting [8]), in assay [4] (setting [9]) and in assay [3] (setting [10]) was 1000 nM in each case. Also, the “Transactivation % max (γ)” value in assay [2] (RAR-γ) is 20%. In assay [4], the “Transactivation % max (β)” value was 21%. The “Transactivation % max (α)” value in assay [3] stood at 14%.
Regarding `C/C(=C\c1ccc(C(=O)O)cc1)c1ccc2c(c1)C(C)(C)CCC2(C)C` [F], the “Photodamage repair activity” value in assay [1] was 1 (an ED50 of 100 μg).
For `C/C(=C\c1ccc(S(C)(=O)=O)cc1)c1ccc2c(c1)C(C)(C)CCC2(C)C` [G], the IC50 in assay [5], in assay [6] and in assay [7] was greater than 10 µM throughout. Besides, the “Photodamage repair activity” value in assay [1] was 3 (an ED50 of 1 μg or less (highly active)). The EC50 in assay [2] (setting [8]), in assay [4] (setting [9]) and in assay [3] (setting [10]) was 1000 nM throughout. Besides, the “Transactivation % max (γ)” value in assay [2] (RAR-γ) is 36%. Moreover, in assay [4], the “Transactivation % max (β)” value was 17%. Moreover, the “Transactivation % max (α)” value in assay [3] worked out at 23%.
Consider `C/C(=C\c1ccccc1)c1ccc2c(c1)C(C)(C)CCC2(C)C` [H], for which the IC50 in assay [5], in assay [6] and in assay [7] was greater than 10 µM throughout. In addition, the “Photodamage repair activity” value in assay [1] was 0. The EC50 in assay [2] (setting [8]), in assay [4] (setting [9]) and in assay [3] (setting [10]) was 1000 nM in each case. Further, the “Transactivation % max (γ)” value in assay [2] (RAR-γ) is 19%. Moreover, in assay [4], the “Transactivation % max (β)” value stood at 10%. Besides, the “Transactivation % max (α)” value in assay [3] came to 12%.
With `CCS(=O)(=O)c1ccc(/C=C(\C)c2ccc3c(c2)C(C)(C)CCC3(C)C)cc1` [I], the IC50 in assay [5], in assay [6] and in assay [7] was greater than 10 µM in each case. In assay [1], the “Photodamage repair activity” value is 3 (an ED50 of 1 μg or less (highly active)). The EC50 in assay [2] (setting [8]), in assay [4] (setting [9]) and in assay [3] (setting [10]) was 1000 nM in each case. Moreover, the “Transactivation % max (γ)” value in assay [2] (RAR-γ) was 21%. Moreover, the “Transactivation % max (β)” value in assay [4] is 21%. Besides, the “Transactivation % max (α)” value in assay [3] was found to be 10%.
`CC1(C)CCC(C)(C)c2cc(C(=O)Nc3ccc(C(=O)O)cc3)ccc21` [J]: in assay [1], the “Photodamage repair activity” value came out at 0.
Still for that read-out and setting: the figure for `CC1(C)CCC(C)(C)c2cc(NC(=O)c3ccc(C(=O)O)cc3)ccc21` [K] is 0.

For orientation: IC50 means the concentration that inhibits the measured activity by half. The low end stands for higher potency, the high end for lower potency.
